Positions of bridges follow the written chain, without caps; N, C: chain ends. Residues, ends and D or L forms follow the SMILES beside them.

The record followed here is article PMC10763615, “Identification and engineering of potent cyclic peptides with selective or promiscuous binding through biochemical profiling and bioinformatic data analysis” (RSC Chemical Biology, 2023).

Common to all, as to assay type: binding
The target of one test is T1, FGF-R4 ECD (Homo sapiens, UniProt P22455).
T1 construct: DNA constructs for the extracellular domain (ECD) of human FGF-; HPC4 (C); made in house; host or cells: HEK 293-6E
T1 sequence (P22455 22-369 limits assumed): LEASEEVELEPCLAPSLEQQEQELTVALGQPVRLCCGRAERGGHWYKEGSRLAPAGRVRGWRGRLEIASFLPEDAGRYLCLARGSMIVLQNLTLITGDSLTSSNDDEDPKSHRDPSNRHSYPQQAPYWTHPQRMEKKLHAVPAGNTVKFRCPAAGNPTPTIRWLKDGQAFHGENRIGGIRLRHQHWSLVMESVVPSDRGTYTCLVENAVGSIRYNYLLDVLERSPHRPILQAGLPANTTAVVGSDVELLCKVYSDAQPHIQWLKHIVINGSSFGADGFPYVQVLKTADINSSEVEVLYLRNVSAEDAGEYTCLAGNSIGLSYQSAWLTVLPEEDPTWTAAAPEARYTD
Nature of the test: single concentration BLI of crude peptides. To be noted: crude T18 selection 1 (1:1:1) peptides, single concentration BLI (Table S4); read-out: KD (4). In short, it runs like this: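 BLI, streptavidin sensors loaded with biotinylated receptor ECD. Single-point: ~1 μM crude peptide, PBS pH7.4/0.05% Tween-20/0.01% BSA; association then dissociation in buffer. KD corrected for UPLC-CAD-determined concentration.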

The next test addresses T2, FGF-R1C ECD (Homo sapiens, UniProt P11362).
T2 sequence (P11362 22-376 limits assumed): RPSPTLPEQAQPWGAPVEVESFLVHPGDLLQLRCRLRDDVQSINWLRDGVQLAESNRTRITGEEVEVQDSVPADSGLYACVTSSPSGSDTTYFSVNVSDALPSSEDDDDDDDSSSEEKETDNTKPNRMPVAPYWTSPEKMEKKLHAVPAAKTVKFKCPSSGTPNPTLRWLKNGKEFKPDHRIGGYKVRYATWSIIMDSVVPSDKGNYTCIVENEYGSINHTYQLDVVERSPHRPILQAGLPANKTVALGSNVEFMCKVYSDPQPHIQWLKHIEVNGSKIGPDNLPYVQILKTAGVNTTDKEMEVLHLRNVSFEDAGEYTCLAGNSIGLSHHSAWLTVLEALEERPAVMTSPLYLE
Nature of the test: biochemical. More on the design: DNA constructs for the extracellular domain (ECD) of human FGF-; HPC4 (C); made in house; host or cells: HEK 293-6E. In short, it runs like this: (§1)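 Biotinylated FGF-R ECD on streptavidin biosensors was dipped into ~1 μM crude peptide in PBS pH7.4 with 0.05% Tween-20 and 0.01% BSA for association, then into buffer for dissociation, and followed by BLI. Fitted KD values were adjusted for peptide concentration measured by UPLC-CAD.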

The target in the next test is T3, FGF-R3C ECD (Homo sapiens, UniProt P22607).
T3 sequence (P22607 23-375 limits assumed): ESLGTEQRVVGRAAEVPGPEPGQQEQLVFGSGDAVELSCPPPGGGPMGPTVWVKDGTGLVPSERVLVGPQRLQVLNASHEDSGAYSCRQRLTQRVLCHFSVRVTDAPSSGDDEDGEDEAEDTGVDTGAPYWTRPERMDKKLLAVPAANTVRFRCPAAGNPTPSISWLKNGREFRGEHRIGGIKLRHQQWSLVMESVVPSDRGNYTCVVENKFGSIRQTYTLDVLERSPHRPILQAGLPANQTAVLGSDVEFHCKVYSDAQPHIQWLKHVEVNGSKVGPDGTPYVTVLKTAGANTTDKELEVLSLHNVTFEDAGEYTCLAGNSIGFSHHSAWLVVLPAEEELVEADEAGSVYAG
As to the kind of experiment: biochemical. More on the design: DNA constructs for the extracellular domain (ECD) of human FGF-; HPC4 (C); made in house; host or cells: HEK 293-6E. The essentials:
as §1

For the compound `CSCC[C@H](NC(C)=O)C(=O)N[C@H]1CSSC[C@@H](C(=O)NCC(=O)N[C@@H](CO)C(=O)NCC(=O)N[C@@H](CO)C(=O)N[C@@H](CC(=O)O)C(=O)N[C@@H](Cc2ccc(O)cc2)C(=O)N[C@@H](CCCCN)C(=O)N[C@@H](CC(=O)O)C(=O)N[C@@H](CC(=O)O)C(=O)N[C@@H](CC(=O)O)C(=O)N[C@@H](CC(=O)O)C(=O)N[C@@H](CCCCN)C(N)=O)NC(=O)[C@H](Cc2ccccc2)NC(=O)[C@H](C(C)C)NC(=O)[C@H](CCCNC(=N)N)NC(=O)[C@H](Cc2c[nH]c3ccccc23)NC(=O)[C@H](Cc2ccc(O)cc2)NC(=O)[C@H](CCC(N)=O)NC(=O)[C@H](C(C)C)NC(=O)[C@H](Cc2ccc(O)cc2)NC(=O)[C@H](Cc2ccc(O)cc2)NC(=O)[C@@H]2CCCN2C1=O` (Ac-MCPYYVQYWRVFCGSGSDYKDDDDK-NH2; disulfide 2-13), the values for the Kd at FGF-R4 ECD, at FGF-R1C ECD and at FGF-R3C ECD were 9 nM, more than 10 µM and more than 10 µM, respectively.
As to `CC[C@H](C)[C@@H]1NC(=O)[C@H](CCC(=O)O)NC(=O)[C@H](CCCNC(=N)N)NC(=O)[C@@H](NC(=O)[C@H](CCSC)NC(C)=O)CSSC[C@@H](C(=O)NCC(=O)N[C@@H](CO)C(=O)NCC(=O)N[C@@H](CO)C(=O)N[C@@H](CC(=O)O)C(=O)N[C@@H](Cc2ccc(O)cc2)C(=O)N[C@@H](CCCCN)C(=O)N[C@@H](CC(=O)O)C(=O)N[C@@H](CC(=O)O)C(=O)N[C@@H](CC(=O)O)C(=O)N[C@@H](CC(=O)O)C(=O)N[C@@H](CCCCN)C(N)=O)NC(=O)[C@H](CCC(N)=O)NC(=O)[C@H](Cc2c[nH]c3ccccc23)NC(=O)[C@H](CC(C)C)NC(=O)[C@H](CCC(N)=O)NC(=O)[C@H](Cc2c[nH]c3ccccc23)NC(=O)[C@H](Cc2ccc(O)cc2)NC(=O)[C@H](CCCNC(=N)N)NC1=O` (Ac-MCREIRYWQLWQCGSGSDYKDDDDK-NH2; disulfide 2-13), the figures for the Kd on FGF-R4 ECD, at FGF-R1C ECD and at FGF-R3C ECD were 27 nM, more than 10 µM and more than 10 µM, respectively.
For `CSCC[C@H](NC(C)=O)C(=O)N[C@H]1CSSC[C@@H](C(=O)NCC(=O)N[C@@H](CO)C(=O)NCC(=O)N[C@@H](CO)C(=O)N[C@@H](CCC(=O)O)C(=O)N[C@@H](CCC(=O)O)C(=O)NCC(=O)N[C@@H](CO)C(=O)NCC(=O)N[C@@H](CO)C(=O)N[C@@H](CC(=O)O)C(=O)N[C@@H](Cc2ccc(O)cc2)C(=O)N[C@@H](CCCCN)C(=O)N[C@@H](CC(=O)O)C(=O)N[C@@H](CC(=O)O)C(=O)N[C@@H](CC(=O)O)C(=O)N[C@@H](CC(=O)O)C(=O)N[C@@H](CCCCN)C(N)=O)NC(=O)[C@H](CCCNC(=N)N)NC(=O)[C@H](CCC(N)=O)NC(=O)[C@H](Cc2c[nH]cn2)NC(=O)[C@H](Cc2c[nH]c3ccccc23)NC(=O)[C@H](CC(C)C)NC(=O)[C@H](CCCCN)NC(=O)[C@H](Cc2c[nH]c3ccccc23)NC(=O)[C@H](Cc2ccc(O)cc2)NC(=O)[C@H](Cc2ccccc2)NC(=O)[C@H](CC(C)C)NC(=O)[C@H](Cc2c[nH]cn2)NC(=O)[C@H](CCCNC(=N)N)NC1=O` (Ac-MCRHLFYWKLWHQRCGSGSEEGSGSDYKDDDDK-NH2; disulfide 2-15), the dissociation constant Kd is 2 nM at FGF-R4 ECD, more than 10 µM on FGF-R1C ECD and more than 10 µM on FGF-R3C ECD.
Consider `CSCC[C@H](NC(C)=O)C(=O)N[C@H]1CSSC[C@@H](C(=O)NCC(=O)N[C@@H](CO)C(=O)NCC(=O)N[C@@H](CO)C(=O)N[C@@H](CC(=O)O)C(=O)N[C@@H](Cc2ccc(O)cc2)C(=O)N[C@@H](CCCCN)C(=O)N[C@@H](CC(=O)O)C(=O)N[C@@H](CC(=O)O)C(=O)N[C@@H](CC(=O)O)C(=O)N[C@@H](CC(=O)O)C(=O)N[C@@H](CCCCN)C(N)=O)NC(=O)[C@H](CCCCN)NC(=O)[C@H](CCCNC(=N)N)NC(=O)[C@H](Cc2c[nH]cn2)NC(=O)[C@H](C(C)C)NC(=O)[C@H](CC(C)C)NC(=O)[C@H](CCC(N)=O)NC(=O)[C@H](Cc2ccc(O)cc2)NC(=O)[C@H](Cc2ccc(O)cc2)NC(=O)[C@H](CCCCN)NC(=O)[C@H](C(C)C)NC(=O)[C@H](Cc2c[nH]c3ccccc23)NC(=O)[C@H](CCCNC(=N)N)NC1=O` (Ac-MCRWVKYYQLVHRKCGSGSDYKDDDDK-NH2; disulfide 2-15), for which the Kd at FGF-R4 ECD is 1 nM; on FGF-R1C ECD it was more than 10 µM; at FGF-R3C ECD, more than 10 µM.
Take `CC[C@H](C)[C@@H]1NC(=O)[C@H](CO)NC(=O)[C@@H](NC(=O)[C@H](CCSC)NC(C)=O)CSSC[C@@H](C(=O)NCC(=O)N[C@@H](CO)C(=O)NCC(=O)N[C@@H](CO)C(=O)N[C@@H](CC(=O)O)C(=O)N[C@@H](Cc2ccc(O)cc2)C(=O)N[C@@H](CCCCN)C(=O)N[C@@H](CC(=O)O)C(=O)N[C@@H](CC(=O)O)C(=O)N[C@@H](CC(=O)O)C(=O)N[C@@H](CC(=O)O)C(=O)N[C@@H](CCCCN)C(N)=O)NC(=O)[C@H](CC(C)C)NC(=O)[C@@H]2CCCN2C(=O)[C@H](CCCCN)NC(=O)[C@H]([C@@H](C)O)NC(=O)[C@H]([C@@H](C)CC)NC(=O)[C@H](CCCCN)NC(=O)[C@H](Cc2ccc(O)cc2)NC(=O)[C@H](Cc2c[nH]c3ccccc23)NC(=O)[C@H](CC(C)C)NC1=O` (Ac-MCSILWYKITKPLCGSGSDYKDDDDK-NH2; disulfide 2-14): the Kd on FGF-R4 ECD was 13 nM; on FGF-R1C ECD it was more than 10 µM; on FGF-R3C ECD, more than 10 µM.
Regarding `CSCC[C@H](NC(C)=O)C(=O)N[C@H]1CSSC[C@@H](C(=O)NCC(=O)N[C@@H](CO)C(=O)NCC(=O)N[C@@H](CO)C(=O)N[C@@H](CCC(=O)O)C(=O)N[C@@H](CCC(=O)O)C(=O)NCC(=O)N[C@@H](CO)C(=O)NCC(=O)N[C@@H](CO)C(=O)N[C@@H](CC(=O)O)C(=O)N[C@@H](Cc2ccc(O)cc2)C(=O)N[C@@H](CCCCN)C(=O)N[C@@H](CC(=O)O)C(=O)N[C@@H](CC(=O)O)C(=O)N[C@@H](CC(=O)O)C(=O)N[C@@H](CC(=O)O)C(=O)N[C@@H](CCCCN)C(N)=O)NC(=O)[C@H](Cc2c[nH]cn2)NC(=O)[C@H](Cc2ccccc2)NC(=O)[C@H](CC(C)C)NC(=O)[C@H](CCCCN)NC(=O)[C@H](Cc2c[nH]c3ccccc23)NC(=O)[C@H](Cc2ccc(O)cc2)NC(=O)[C@H](Cc2ccc(O)cc2)NC(=O)[C@H](CC(C)C)NC(=O)[C@H](Cc2c[nH]cn2)NC(=O)[C@H](CCCNC(=N)N)NC(=O)CNC(=O)[C@H]([C@@H](C)O)NC1=O` (Ac-MCTGRHLYYWKLFHCGSGSEEGSGSDYKDDDDK-NH2; disulfide 2-15), the Kd at FGF-R4 ECD was 10 nM; at FGF-R1C ECD, more than 10 µM; on FGF-R3C ECD, more than 10 µM.
Regarding `CSCC[C@H](NC(C)=O)C(=O)N[C@H]1CSSC[C@@H](C(=O)NCC(=O)N[C@@H](CO)C(=O)NCC(=O)N[C@@H](CO)C(=O)N[C@@H](CC(=O)O)C(=O)N[C@@H](Cc2ccc(O)cc2)C(=O)N[C@@H](CCCCN)C(=O)N[C@@H](CC(=O)O)C(=O)N[C@@H](CC(=O)O)C(=O)N[C@@H](CC(=O)O)C(=O)N[C@@H](CC(=O)O)C(=O)N[C@@H](CCCCN)C(N)=O)NC(=O)[C@H](CCC(N)=O)NC(=O)[C@H](Cc2c[nH]cn2)NC(=O)[C@H](Cc2c[nH]c3ccccc23)NC(=O)[C@H](CC(C)C)NC(=O)[C@H]([C@@H](C)O)NC(=O)[C@H](CCC(=O)O)NC(=O)[C@H](Cc2ccc(O)cc2)NC(=O)[C@@H]2CCCN2C(=O)[C@H](Cc2c[nH]cn2)NC(=O)[C@H](CCCNC(=N)N)NC(=O)[C@H](Cc2c[nH]cn2)NC(=O)[C@H]([C@@H](C)O)NC1=O` (Ac-MCTHRHPYETLWHQCGSGSDYKDDDDK-NH2; disulfide 2-15), the Kd at FGF-R4 ECD was more than 10000 nM; at FGF-R1C ECD, more than 10 µM; on FGF-R3C ECD it was more than 10 µM.
